Results published in patent US4215143A (Mitsui Toatsu Chemicals, Incorporated, priority 1978, dated 1980).

How the values were obtained:
[1] = test system: Gastric Juice Secretion; assay: Effect on gastric juice secretion in pylorus-ligated rats; assay type: in vivo, Male rats of the Donryu strain; settings: 250 mg/kg, p.o.; 4 hours; control 4.9 ± 0.4; * significant vs control at the 5% level
Description: (§1) Male rats of the Donryu strain, 11 weeks of age, were used in groups of ten. After 24 hours of fasting, the pylorus was ligated. Four hours later, the gastric juice was collected and its volume was measured. Then, its acidity was determined by titrating an aliquot of the gastric juice with 0.05 N sodium hydroxide. Further, the activity of pepsin was determined by Anson's method. A definite amount (250 mg/kg) of a compound to be tested was orally administered immediately after the ligation of the pylorus.

[2] = test system: Gastric Juice Acidity; assay: Effect on gastric juice acidity in pylorus-ligated rats; assay type: in vivo, Male rats of the Donryu strain; settings: 250 mg/kg, p.o.; 4 hours; control 92.5 ± 3.7; * significant vs control at the 5% level
Description: as §1

[3] = test system: pepsin; assay: Effect on pepsin activity in pylorus-ligated rats (Anson's method); assay type: in vivo, Male rats of the Donryu strain; settings: 250 mg/kg, p.o.; 4 hours; control 7.4 ± 0.5; ** significant vs control at the 1% level
Description: as §1

[4] = test system: Shay's Ulcer; assay: Shay's Ulcer (pylorus ligation), anti-ulcer effect; assay type: in vivo, Male rats of the Wistar strain; settings: p.o., 12 hours, vs control group
Description: The anti-ulcer effect of some compounds of this invention was evaluated with regard to various types of experimental gastric and duodenal ulcers. The method of evaluation for each type of ulcer is outlined below. Male rats of the Wistar strain, 7 or 8 weeks of age, were used in groups of ten. After 48 hours of fasting, the pyloric part of the stomach was ligated under ether anesthesia. Immediately after the operation, a certain amount of a compound to be tested was orally administered to each animal of a group. After 12 hours, the degree of ulceration occurring in the anterior part of the stomach was rated and regarded as an ulcer index (U.I.). Control rats were treated in the same manner as described above, except that they received no compounds to be tested. The results given in Table 1 are expressed in terms of the percentage of inhibition based on the U.I. obtained in the control group.

[5] = test system: Stress Ulcer; assay: Stress Ulcer (water immersion restraint), anti-ulcer effect; assay type: in vivo, Male rats of the Wistar strain; settings: 250 mg/kg, p.o.; stress for 16 hours; vs control group
Description: The anti-ulcer effect of some compounds of this invention was evaluated with regard to various types of experimental gastric and duodenal ulcers. The method of evaluation for each type of ulcer is outlined below. Male rats of the Wistar strain, 8 weeks of age, were used in groups of ten. Each animal was immobilized in a stressing cage as developed by Takagi et al., immersed in water at 23° C. to the level of the xiphoid process, and thereby subjected to stress for 16 hours. Thereafter, the stomach was excised. The length of the ulcer formed in the glandular part of the stomach was measured and regarded as an ulcer index (U.I.). A certain amount of a compound to be tested was orally administered just before subjecting the animal to stress. The results are also expressed in terms of the percentage of inhibition based on the U.I. obtained in the control group receiving no compounds to be tested.

[6] = test system: Aspirin Ulcer; assay: Aspirin Ulcer, anti-ulcer effect; assay type: in vivo, Male rats of the Donryu strain; settings: p.o., aspirin 250 mg/kg oral, 6 hours
Description: (§2) The anti-ulcer effect of some compounds of this invention was evaluated with regard to various types of experimental gastric and duodenal ulcers. The method of evaluation for each type of ulcer is outlined below.
Male rats of the Donryu strain, 10 or 11 weeks of age, were used in groups of ten. After 24 hours of fasting, a certain amount of a compound to be tested was orally administered to each animal of a group. Ten minutes later, aspirin was orally administered in a dose of 250 mg/kg. After 6 hours, the size of the ulcer formed in the glandular part of the stomach was rated by visual inspection and regarded as an ulcer index (U.I.). The results are also expressed in terms of the percentage of inhibition based on the U.I. obtained in the control group receiving no compounds to be tested.

[7] = test system: Acetic Acid Ulcer; assay: Acetic Acid Ulcer, healing promotion effect; assay type: in vivo, Male rats of the Wistar strain; settings: p.o., twice a day for 7 days
Description: as §2
Male rats of the Wistar strain, 6 weeks of age, were used in groups of ten. Under ether anesthesia, each animal was laparotomized, a round frame (with an inside diameter of 5 mm) made of stainless steel was applied to the anterior wall of the stomach, and 100% acetic acid was poured into the frame. After 30 seconds, the acetic acid was removed and the abdomen was closed. Starting on the 7th day after the operation, a certain amount of a compound to be tested was orally administered twice a day to each animal of a group for a period of 7 days. Thereafter, the degree of healing of the ulcer was rated by visual insepction and regarded as an ulcer index (U.I.). The results are also expressed in terms of the percentage of healing based on the U.I. obtained in the control group receiving no compounds to be tested.

Row | Substance | Amount of Gastric Juice Secreted [1] [mL] | Acidity of Gastric Juice [2] [mEq/l] | Activity of Pepsin [3] [mg/mL] | percentage of inhibition (ulcer index, Shay's Ulcer) ([4]; 100 mg/kg) [percentage] | percentage of inhibition (ulcer index, Shay's Ulcer) ([4]; 250 mg/kg) [percentage] | percentage of inhibition (ulcer index, Stress Ulcer) [5] [percentage] | percentage of inhibition (ulcer index, Aspirin Ulcer) ([6]; 100 mg/kg) [percentage] | percentage of inhibition (ulcer index, Aspirin Ulcer) ([6]; 250 mg/kg) [percentage] | percentage of healing (ulcer index, Acetic Acid Ulcer) ([7]; 100 mg/kg) [percentage] | percentage of healing (ulcer index, Acetic Acid Ulcer) ([7]; 250 mg/kg) [percentage]
1 | inositol hexasulfate aluminum salt | 3.6 ± 0.4 | 57.8 ± 12.9 | 4.8 ± 0.4 | – | – | – | – | – | – | –
2 | inositol hexasulfate sodium aluminum salt | 3.6 ± 0.4 | 61.1 ± 11.4 | 5.1 ± 0.5 | 87 | 90 | 30 | 42 | 49 | 23 | 28
